In patent publication US20260014146A1, “CDK2 INHIBITORS AND METHODS OF USING THE SAME” (Cedilla Therapeutics, Inc., priority 2022, published 2026):

Columns and labels:
[1] = system: Kuramochi cells labeled with mApple-H2B; test: IncuCyte cell proliferation assay; assay type: cell-based; conditions: Kuramochi RB-WT, cell count 0 to 72 hours; method calls it GI50
Description: IncuCyte® assay was used to measure the effect of disclosed compounds on cell proliferation. Fluorescent microscopy images of cells were taken immediately after compound treatment and 72 hours later. Image analysis software was used to obtain cell counts as a function of compound concentration. Kuramochi cells labeled with mApple-H2B were seeded on 384-well assay-ready plates. Plates were placed in an IncuCyte® (Sartorius) and scanned at 0 and 72 hours. IncuCyte® software was used to count the number of fluorescent nuclei in each well. The fold change in cell count from 0 to 72 hours in wells treated with increasing compounds concentrations (10 pts, 1/2 log dilution, 20 μM top concentration) was normalized to DMSO control wells. The normalized cell counts were fit with dose response curves and a GI50 was calculated.

CDK2/Cyclin E1 [2] = target: T1, CDK2/Cyclin E1 (Homo sapiens (Human), UniProt P24941); test: ADP-Glo Luminescent Kinase Assay, ADPGLO (CDK2/E1-37C); assay type: biochemical; conditions: 0.18 nM CDK2/Cyclin E1, 100 μM ATP, 1.5 μM Histone H1, 37° C.; read-out: Pharmaron ADPGLO (CDK2/E1-37C): IC50
Description: Inhibition of CDK2/Cyclin E1 activity by the presence of small molecules was evaluated using ADP-Glo Luminescent Kinase Assay (Promega). Activated CDK2/Cyclin E1 was incubated with its substrate Histone H1 (SignalChem H10-54N) in the kinase reaction buffer (100 μM ATP, 50 mM HEPES pH 7.5, 10 mM MgCl2, 1 mM EDTA, 2 mM DTT, 0.01% Brij35, 0.5 mg/mL BSA). Luminescence was recorded with an Envision plate reader (PerkinElmer).
Dose titrations of inhibitors in 100% DMSO were combined with 0.36 nM CDK2/Cyclin E1 in reaction buffer. The mixtures were incubated for 60 minutes at 37° C. before the addition of ATP and Histone H1 substrate to initiate the kinase reaction. The final conditions were 0.18 nM CDK2/Cyclin E1, 100 μM ATP, and 1.5 μM Histone H1. The reactions were incubated at 37° C. for 90 minutes before being stopped with the addition of ADP-Glo reagent. This mixture was incubated at room temperature for 60 minutes before Kinase Detection Solution is added to generate luminescence. The stopped reactions were analyzed on an Envision plate reader. The conversion ratios were normalized to yield % activity, plotted against compound concentration, and fit to a four-parameter equation to determine the IC50 for each compound.

Kuramochi cells = test: BrdU cell proliferation assay; assay type: cell-based; conditions: 96 h, developed on day 4, read-out: BrdU - KURAMOCHI.1: IC50
Description: A BrdU assay was used as a measure of proliferation based on the DNA replication process of proliferating cells. BrdU, a pyrimidine analog, is added to the cell culture and incorporated into the DNA of proliferating cells. The presence of the BrdU analog was then measured through a colorimetric ELISA. After fixation and permeabilization of cells, peroxidase-conjugated antibody recognizing BrdU is added and allowed to incubate, followed by thorough washing to remove unbound antibody. In order to quantify the amount of bound antibody, peroxidase substrate is added and produces a color that can be measured at 450 nm.
On day −1, Kuramochi cells (Sekisui XenoTech JCRB0098) were seeded at 2,000 cells/well in columns 2-12 of a 96 well plate (Corning, CLS3596) in 150 uL media and allowed to adhere overnight at 37 degree with 5% CO2. In order to assess specificity of the compounds, Kuramochi RB^KO cells were also plated and treated, as RB^KO cells were not expected to show a proliferative response to CCNE/CDK specific inhibitors.
On day 0, the source plate was prepared by adding 10 mM compounds and performing 3-fold serial dilutions for a 4-point dose response of each compound. Using a multichannel pipette, 2 μL of the contents of the source plate were stamped into an intermediate plate with 500 μL of RPMI 1640 Media, GlutaMAX Supplement (Life Technologies. 61870127) in each well of a Nunc 96 DeepWell™ plate, non-treated 96 DeepWell plate, 2 mL/well, sterile, natural. 60/cs (Sigma Z717274) and mixed thoroughly. 50 uL from row A of this intermediate plate were added to rows A-H of one plate of previously seeded Kuramochi cells, and each subsequent row of the intermediate plate was added to a full plate of cells.
On day 4, the plates were developed using the BrdU ELISA Cell Proliferation Assay according to manufacturer's instructions (Roche, 11647229001). Briefly, BrdU was diluted 1:100 in Gibco®. Opti-MEM® and 20 μL/well was added, shaken for 10 minutes at 350 rpm, and then returned to the incubator for 1 hour. Following incubation, the medium was discarded, and the cells were fixed by adding 200 μL of Fix/Denature solution. The anti-BrdU peroxidase antibody was diluted 1:1000 in OptiMEM, added at 100 μL/well, and incubated while shaking (350 rpm) for one hour. Three washes with PBS were performed to remove any unbound antibody, followed by the addition of 100 μL of substrate solution to each well. […] was then added to halt the reaction, and plates were read out using an Envision spectrophotometer (Perkin Elmer) set to read 450 nm absorbance. Background absorbance values from empty wells were subtracted from all samples and then normalized to DMSO treated wells.

CDK2/Cyclin E1 [3] = target: T1, CDK2/Cyclin E1; test: Caliper LabChip EZ Reader mobility shift assay; assay type: biochemical; conditions: 2.5 nM CDK2/Cyclin E1 (14-475), 100 μM ATP, 1.5 μM fluorescent peptide; read-out: Caliper Assay (CDK2/CCNE1): IC50
Description: Inhibition of CDK2/Cyclin E1 activity in the presence of compounds of the present disclosure was evaluated using a Caliper LabChip® EZ Reader mobility shift assay. In the assay, activated CDK2/Cyclin E1 catalyzes the phosphorylation of a fluorescently tagged peptide 5-FAM-QSPKKG-CONH2 (PerkinElmer, FL Peptide 18) which induces a difference in capillary electrophoresis mobility. The peptide substrate and product were measured, and the conversion ratio was used to determine the inhibition (as % activity and IC50 values) of CDK2/Cyclin E1. Reactions contained 50 mM HEPES pH 7.5, 10 mM MgCl2, 1 mM EDTA, 2 mM DTT, 0.01% Brij35, 0.5 mg/mL BSA, 0.1% DMSO, 2.5 nM CDK2/Cyclin E1 (14-475), 100 μM ATP, and 1.5 μM fluorescent peptide substrate.
Dose titrations of inhibitors in 100% DMSO were combined with 3.25 nM CDK2/Cyclin E1 (14-475) and 130 μM of ATP in reaction buffer. The mixtures were incubated for 30 minutes before the addition of fluorescent peptide substrate to initiate the kinase reaction. The final conditions were 2.5 nM CDK2/Cyclin E1 (14-475), 100 μM ATP, and 1.5 μM fluorescent peptide. The reactions were stopped after 100 minutes with the addition of EDTA (6 mM final EDTA concentration). The stopped reactions were analyzed on a Caliper LabChip® EZ Reader II. The conversion ratios were normalized to yield % activity, plotted against compound concentration, and fit to a four-parameter equation to determine the IC50 for each compound.

IC50 (CDK2/Cyclin E1 [2]) [µM]	IC50 (CDK2/Cyclin E1 [3]) [µM]	SMILES	IC50 [1] [µM]	IC50 (Kuramochi cells) [µM]
5 to 10	–	C[C@@H](OCC12CCC(CC1)OC2)[C@H](NC(=O)[C@@H]1CN(c2cc(F)cc3ncsc23)CC12CN(C(=O)C1(C(F)(F)F)CC1)C2)C(=O)NS(=O)(=O)c1ccc(F)cc1F [Compound I-51, (S)-N-((2S,3R)-3-(2-oxabicyclo[2.2.2]octan-4-ylmethoxy)-1-(2,4-difluorophenylsulfonamido)-1-oxobutan-2-yl)-6-(5-fluorobenzo[d]thiazol-7-yl)-2-(1-(trifluoromethyl)cyclopropanecarbonyl)-2,6-diazaspiro[3.4]octane-8-carboxamide]	> 20	–
–	> 10	C[C@@H](OCC12CCC(CC1)OC2)[C@H](NC(=O)[C@@H]1CN(C(=O)c2cncs2)CC12CN(c1ncco1)C2)C(C)(C)O [Compound I-3, (S)-N-((3S,4R)-4-(2-oxabicyclo[2.2.2]octan-4-ylmethoxy)-2-hydroxy-2-methylpentan-3-yl)-2-(oxazol-2-yl)-6-(thiazole-5-carbonyl)-2,6-diazaspiro[3.4]octane-8-carboxamide]	> 20	> 10
5 to 10	–	COc1ccc(S(=O)(=O)NC(=O)[C@@H](NC(=O)[C@@H]2CN(c3cc(F)cc4ncsc34)CC23CN(C(=O)C2(C(F)(F)F)CC2)C3)[C@@H](C)OCC23CCC(CC2)OC3)cc1 [Compound I-50, (S)-N-((2S,3R)-3-((2-oxabicyclo[2.2.2]octan-4-yl)methoxy)-1-((4-methoxyphenyl)sulfonamido)-1-oxobutan-2-yl)-6-(5-fluorobenzo[d]thiazol-7-yl)-2-(1-(trifluoromethyl)cyclopropane-1-carbonyl)-2,6-diazaspiro[3.4]octane-8-carboxamide]	> 20	–
–	> 10	C[C@@H](OCC1CCCCC1)[C@H](NC(=O)[C@@H]1CN(c2cccc3scnc23)CC12CN(C(=O)[C@H]1CC1(C)C)C2)C(=O)N1CCCCC1 [Compound I-8, 6-(benzo[d]thiazol-4-yl)-N-((2S,3R)-3-(cyclohexylmethoxy)-1-oxo-1-(piperidin-1-yl)butan-2-yl)-2-((S)-2,2-dimethylcyclopropanecarbonyl)-2,6-diazaspiro[3.4]octane-8-carboxamide]	> 20	5 to 10
–	0.1 to 1	C[C@@H](OCC1CCCCC1)[C@H](NC(=O)[C@@H]1CN(c2cccc3ncsc23)CC12CN(C(=O)[C@H]1CC1(C)C)C2)C(=O)N1CCCCC1 [Compound I-7, (S)-6-(benzo[d]thiazol-7-yl)-N-((2S,3R)-3-(cyclohexylmethoxy)-1-oxo-1-(piperidin-1-yl)butan-2-yl)-2-((S)-2,2-dimethylcyclopropanecarbonyl)-2,6-diazaspiro[3.4]octane-8-carboxamide]	> 20	5 to 10
0.5 to 5	–	C[C@@H](OCC12CCC(CC1)OC2)[C@H](NC(=O)[C@@H]1CN(c2cc(F)cc3nccnc23)CC12CN(C(=O)C1(C(F)(F)F)CC1)C2)C(=O)N1CCC(c2nccs2)CC1 [Compound I-44, (S)-N-((2S,3R)-3-(2-oxabicyclo[2.2.2]octan-4-ylmethoxy)-1-oxo-1-(4-(thiazol-2-yl)piperidin-1-yl)butan-2-yl)-6-(7-fluoroquinoxalin-5-yl)-2-(1-(trifluoromethyl)cyclopropanecarbonyl)-2,6-diazaspiro[3.4]octane-8-carboxamide]	> 20	–
–	> 10	C[C@@H](OCC1CCCCC1)[C@H](NC(=O)[C@@H]1CN(c2nccc3scnc23)CC12CN(C(=O)[C@H]1CC1(C)C)C2)C(=O)N1CCCCC1 [Compound I-10, (S)-N-((2S,3R)-3-(cyclohexylmethoxy)-1-oxo-1-(piperidin-1-yl)butan-2-yl)-2-((S)-2,2-dimethylcyclopropanecarbonyl)-6-(thiazolo[4,5-c]pyridin-4-yl)-2,6-diazaspiro[3.4]octane-8-carboxamide]	5 to 20	> 10
–	> 10	C[C@@H](OCC1CCCCC1)[C@H](NC(=O)[C@@H]1CN(c2nccc3[nH]ncc23)CC12CN(C(=O)[C@H]1CC1(C)C)C2)C(=O)N1CCCCC1 [Compound I-9, (S)-N-((2S,3R)-3-(cyclohexylmethoxy)-1-oxo-1-(piperidin-1-yl)butan-2-yl)-2-((S)-2,2-dimethylcyclopropanecarbonyl)-6-(1H-pyrazolo[4,3-c]pyridin-4-yl)-2,6-diazaspiro[3.4]octane-8-carboxamide]	> 20	> 10

SMILES	IC50 (CDK2/Cyclin E1 [2]) [µM]	IC50 (CDK2/Cyclin E1 [3]) [µM]	IC50 [1] [µM]	IC50 (Kuramochi cells) [µM]
C[C@@H](OCC12CCC(CC1)OC2)[C@@H](COC1CCC(c2ccccc2C(=O)O)CC1)NC(=O)[C@@H]1CN(c2cc(F)cc3ncsc23)CC12CN(C(=O)C1(C(F)(F)F)CC1)C2 (stereo partly drawn) [Compound I-53, 2-(4-((2R,3R)-3-(2-oxabicyclo[2.2.2]octan-4-ylmethoxy)-2-((S)-6-(5-fluorobenzo[d]thiazol-7-yl)-2-(1-(trifluoromethyl)cyclopropanecarbonyl)-2,6-diazaspiro[3.4]octane-8-carboxamido)butoxy)cyclohexyl)benzoic acid]	> 10	–	> 20	–
